Assay results reported in US5071839A, “Safe pharmaceutical composition for decreasing side effects of antiviral drugs and increasing the immune function (SDI) II” (priority 1987, dated 1991).
Where two headings read alike, the source gives them in different places.

Columns and labels:
[1] = cited from earlier work
[2] = tested on: DNA synthesis; conditions: cited from earlier work
[3] = tested on: T lymphocytes; assay: Formation of rosette (T lymphocytes with sheep erythrocytes) (Example 9, Table 5); format: cell-based, mice; conditions: C: control, only antiviral drug (80 μg/ml)
Procedure: (§1) Male mice weight 18-20 g were used in the experimetns. The dosage of SDI is 5-10 mg/kg injected intraperitoneally. The normal mice were injected with same volume of normal saline. These injections were repeated daily for 3-5 days. On the last say, both antiviral drug and antiviral drug+SDI group were injected interaperitoneally.
a. Obtain venous blood in heparin (10 IU ml^-1) and perform a total and differential leucocyte count.
b. Isolate lymphocyte fraction. Count vaiable lymphocytes calculate and record total yield. Adjust to 5×10^5 lymphocytes ml^-1.
c. Wash sheep erythrocytes by centrifugation (400 g for 10 minutes at room temperature) and ajust to a 2.5% v/v suspension in PBS.
d. Mix 0.1 ml of the lymphocyte suspension with 0.1 ml of sheep erythrocytes and centrifuge at 225 g for 5 minutes at room temperature.
e. Incubate for 2 hours at 4° C.
f. Add 50 μl of fetal bovine serum (FBS).
g. Resuspend cell mixture by gently tapping the tube and pipette a sample into a haemocytomer.
h. Count 200 lymphocytes and determine the percentage of cell with 3 or more erythrocytes attached. (Three are T lymphocytes).
i. Calculate the absolute number of T lymphocytes ml^-1 of original blood.

[4] = tested on: bone marrow stem cells (CFU-S); assay: Spleen colony assay, bone marrow stem cells (CFU-S) (Example 6, Table 2); format: in vivo, mice; conditions: C: control, only antiviral drug (80 μg/ml)
Procedure: as §1
Effects of SDI on hemopoietic system were investigated.

[5] = tested on: YAC-1 or EAC cells; assay: Natural killer cell cytotoxicity, 51Cr release from YAC-1 or EAC cells (Example 5, Table 1); format: cell-based, mice; conditions: C: control, only antiviral drug (80 μg/ml); E:T 100:1
Procedure: as §1
Natural Killer (NK) Cells can destrou many viruse. NK cells may be important in limiting early spread of virus, also Natural Killer Cytotoxicity is effective antiviral agent. NK cell cytoxicity was tested by chromium release which assay using ^51 Cr-labelled YAC-1 or EAC cell line as targer cells. […] The effector cell to target cell (E:T) radio is 100:1. After the incubation the tuber were spun, the amount of ^51 Cr-released in 0.1 ml supernatant was counted by r-scintillation counter. Percent cytotoxicity was calculated from the following formula: [formula]

[6] = tested on: lymphocytes; assay: Lymphoblastoid transformation test, 3H-TdR (Example 7, Table 3); format: cell-based, mice; conditions: C: control, only antiviral drug (80 μg/ml)
Procedure: as §1
1. Reagents and conditions for cell culture
a. Culture media--RPMI 1640, madium 199 minimal essential medium (Eagle).
b. 37° C. to maintain the pH of the medium at 7.31.
c. Serum--generally 15-20% fetal bovine serum was incorporated.
d. Gaseous phase 5% CO2 in air;
e. Cell concentration--generally 1-2×10^6 /ml;
f. Stimulants--20 μg/ml for phytoagglutinin containing polysaccharide (PHA-M) or 10 μg/ml for polysaccharide-free purified phytoagglutinin (PHA-P).
2. Measured by liquid scintillation
a. The conditions of cell culture are same as above. ^3 H-TdR was added after 48 hours of incubation at a final concentration of 2 μCi/ml and continue the incubation for 24 hours.
b. Wash the cells twice with cold normal saline and the erythrocytes were lysed by addition of distilled-water and equal volume of 3.6% NaCi was then added. The intact lymphocytes and add 2 ml of 10% trichloroacetic acid to precipitate the protein. Wash twice with normal saline. Add 2 ml of ethanol: ether (1:1) to wash once. 0.2 ml of formic acid was then added for digestion till the precipitate was dissolved.
c. Add 4 ml of scintillation fluid to 0.1 ml of the final sample and count in a liquid scintillation counter.

[7] = tested on: white blood cells; assay: White blood cells assay (Example 8, Table 4); format: in vivo, mice; conditions: C: control, only antiviral drug (80 μg/ml); 7 days
Procedure: as §1
Action of SDI II and antiviral drug on white blood cells was investigated by means of white blood cells assay. […] Time of treatment is 7 days.

[8] = tested on: peritoneal macrophage; assay: Phagocytosis of peritoneal macrophage of mice, 51Cr chick red blood cells (Example 10, Table 6); format: cell-based; conditions: C: control, only antiviral drug (80 μg/ml)
Procedure: as §1
Count the number of macrophages in the peritoneal exudate of mice and adjust to 1×10^7 cell/ml with normal saline. Add 0.1 ml of the macrophage suspension. i.e. 1×10^6 cells to each well on the plastic plate for test. Lable the chick red blood cell with ^51 Cr. Suspend the labelled chick red blood cell and adjust to 1.5×10^8/ml, add 0.1 ml, i.e. 1.5×10^7, to each well. Incubate at 37° C. for 30 minutes. Wash thoughly to remove the free chick red blood cells. Count each well in a γ-counter.

Row | Structure (SMILES) | side effects (marrow, blood) ([1]; various degree) | DNA synthesis [2] | Rate of formed rosette [3] [%] | Mean CFU ± SD [4] | % Cytotoxicity (NK cells) [5] [%] | CPM (lymphoblastoid transformation) [6] [CPM] | White blood cells [7] [mL⁻¹] | CPM (phagocytosis of peritoneal macrophage) [8] [CPM] | side effects (marrow, blood) ([1]; in vivo)
1 | O=c1cnn([C@@H]2O[C@H](CO)[C@@H](O)[C@H]2O)c(=O)[nH]1 [AZU, 6-Azauridune] | bone-marrow suppression, megaloblastic anemia and recreasing total white blood cells |  |  |  |  |  |  |  | 
2 | Cc1cn([C@H]2C[C@H](N=[N+]=[N-])[C@@H](CO)O2)c(=O)[nH]c1=O [AZT, 3'-Azido-3'-deoxythymidine] | bone-marrow suppression and megaloblastic anemia, and decreasing total white blood cells | blocker of DNA synthesis |  |  |  |  |  |  | 
3 | Nc1ncnc2c1ncn2[C@H]1CC[C@@H](CO)O1 [DDA, 2',3'-Dideoxyadenoside] | bone-marrow suppression, megaloblastic anemia and recreasing total white blood cells |  | 22.4 | 4.2 | 18.0 | 502 | 4200 | 489 | 
4 | Nc1ncn([C@@H]2O[C@H](CO)[C@@H](O)[C@H]2O)c(=O)n1 [AZC] |  |  | 19.8 | 3.1 | 11.2 | 441 | 3800 | 401 | 
5 | Nc1ccn([C@H]2CC[C@@H](CO)O2)c(=O)n1 [DDC, 2',3'-Dideoxycytidine] |  |  |  |  |  |  |  |  | bone-marrow suppression, megaloblastic anemia and recreasing total white blood cells
6 | NC(=O)c1ncn([C@@H]2O[C@H](CO)[C@@H](O)[C@H]2O)n1 [Rib, Ribofuranosyl-Trazole-Carboxamide] | bone-marrow suppression, megaloblastic anemia and recreasing total white blood cells |  | 28.7 | 4.2 | 22.3 | 763 | 4900 | 540 | 
7 | Nc1ncn([C@H]2C[C@H](O)[C@@H](CO)O2)c(=O)n1 [AZCdR, 5'-Aza-2'-deoxycytidine] | bone-marrow suppression, megaloblastic anemia and recreasing total white blood cells |  |  |  |  |  |  |  | 
8 | N=c1ccn2c(n1)O[C@H]1[C@H](O)[C@@H](CO)O[C@H]12 [C.C., Cyclocytidine] | bone-marrow suppression, megaloblastic anemia and recreasing total white blood cells |  |  |  |  |  |  |  | 
9 | O=c1[nH]c(=O)n([C@H]2C[C@H](O)[C@@H](CO)O2)cc1I [IDU, Idoxuridine] |  |  |  |  |  |  |  |  | bone-marrow suppression, megaloblastic anemia and recreasing total white blood cells
10 | Nc1nc2c(ncn2COCCO)c(=O)[nH]1 [ACV, Acyclovir] | bone-marrow suppression, megaloblastic anemia and recreasing total white blood cells |  |  |  |  |  |  |  | 
11 | O=P1(N(CCCl)CCCl)NCCCO1 (centres unmarked) [CP, Cyclophosphamide] | bone-marrow suppression, megaloblastic anemia and recreasing total white blood cells |  | 20.7 | 4.0 | 20.7 | 620 | 5300 | 481 | 
12 | Nc1ccn([C@@H]2O[C@H](CO)[C@@H](O)[C@@H]2O)c(=O)n1 [Ara-C, Cytarabine] | bone-marrow suppression, megaloblastic anemia and recreasing total white blood cells |  | 23.7 | 3.8 |  | 654 | 4200 | 512 | 
